Like-named read-outs stand apart in the source and are kept apart here.
Experiments:
Experiment in all cases: Kinase panel profiling at 1 µmol/L (MSA or IMAP), percentage inhibition
Assay type in all cases: biochemical
[1] = molecular target: panel of 255 wild-type kinases (Homo sapiens, UniProt P78362); conditions: read-out: %-inhibition at 1 µmol/L, SRPK2
[2] = molecular target: panel of 255 wild-type kinases (Homo sapiens, UniProt Q9Y5S2); conditions: read-out: %-inhibition, MRCKβ
[3] = molecular target: T1, panel of 255 wild-type kinases (Homo sapiens, UniProt Q05513); conditions: read-out: %-inhibition at 1 µmol/L, PKCζ
T1 sequence (Q05513 1-592): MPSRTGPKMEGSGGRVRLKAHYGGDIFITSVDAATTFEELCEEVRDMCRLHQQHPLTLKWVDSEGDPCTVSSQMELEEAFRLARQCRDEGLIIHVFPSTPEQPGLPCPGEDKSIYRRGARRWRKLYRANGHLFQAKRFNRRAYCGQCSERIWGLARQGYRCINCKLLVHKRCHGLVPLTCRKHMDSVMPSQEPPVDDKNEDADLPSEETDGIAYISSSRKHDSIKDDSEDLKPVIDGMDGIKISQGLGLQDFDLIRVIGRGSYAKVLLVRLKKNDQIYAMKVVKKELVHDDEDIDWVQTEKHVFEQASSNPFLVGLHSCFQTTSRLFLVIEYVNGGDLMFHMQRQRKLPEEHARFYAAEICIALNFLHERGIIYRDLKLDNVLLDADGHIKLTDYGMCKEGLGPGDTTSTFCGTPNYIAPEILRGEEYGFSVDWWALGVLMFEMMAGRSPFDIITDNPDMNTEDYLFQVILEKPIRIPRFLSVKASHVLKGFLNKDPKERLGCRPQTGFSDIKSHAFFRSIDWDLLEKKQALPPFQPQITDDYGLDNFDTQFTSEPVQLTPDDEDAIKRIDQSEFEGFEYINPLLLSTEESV

[4] = molecular target: T2, panel of 255 wild-type kinases (Homo sapiens, UniProt P41743); conditions: read-out: %-inhibition at 1 µmol/L, PKCι
T2 sequence (P41743 1-596): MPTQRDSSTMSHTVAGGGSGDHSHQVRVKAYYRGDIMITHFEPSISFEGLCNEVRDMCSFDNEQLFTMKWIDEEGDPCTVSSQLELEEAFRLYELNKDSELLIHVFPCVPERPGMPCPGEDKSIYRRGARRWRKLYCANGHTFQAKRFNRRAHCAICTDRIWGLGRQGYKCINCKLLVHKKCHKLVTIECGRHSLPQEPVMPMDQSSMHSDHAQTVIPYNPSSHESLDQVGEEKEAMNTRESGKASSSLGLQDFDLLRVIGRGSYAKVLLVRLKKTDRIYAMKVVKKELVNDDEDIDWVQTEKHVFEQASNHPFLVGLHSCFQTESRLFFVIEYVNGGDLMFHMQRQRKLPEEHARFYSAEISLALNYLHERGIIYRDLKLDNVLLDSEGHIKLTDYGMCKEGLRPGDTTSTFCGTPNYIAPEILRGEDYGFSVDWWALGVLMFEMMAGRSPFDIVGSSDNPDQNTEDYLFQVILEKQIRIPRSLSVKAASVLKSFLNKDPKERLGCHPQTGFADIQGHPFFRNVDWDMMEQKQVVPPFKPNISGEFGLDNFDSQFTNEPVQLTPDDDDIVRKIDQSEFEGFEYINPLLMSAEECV

[5] = molecular target: T3, panel of 255 wild-type kinases (Homo sapiens, UniProt O43781); conditions: read-out: %-inhibition at 1 µmol/L, DYRK3
T3 sequence (O43781 1-588): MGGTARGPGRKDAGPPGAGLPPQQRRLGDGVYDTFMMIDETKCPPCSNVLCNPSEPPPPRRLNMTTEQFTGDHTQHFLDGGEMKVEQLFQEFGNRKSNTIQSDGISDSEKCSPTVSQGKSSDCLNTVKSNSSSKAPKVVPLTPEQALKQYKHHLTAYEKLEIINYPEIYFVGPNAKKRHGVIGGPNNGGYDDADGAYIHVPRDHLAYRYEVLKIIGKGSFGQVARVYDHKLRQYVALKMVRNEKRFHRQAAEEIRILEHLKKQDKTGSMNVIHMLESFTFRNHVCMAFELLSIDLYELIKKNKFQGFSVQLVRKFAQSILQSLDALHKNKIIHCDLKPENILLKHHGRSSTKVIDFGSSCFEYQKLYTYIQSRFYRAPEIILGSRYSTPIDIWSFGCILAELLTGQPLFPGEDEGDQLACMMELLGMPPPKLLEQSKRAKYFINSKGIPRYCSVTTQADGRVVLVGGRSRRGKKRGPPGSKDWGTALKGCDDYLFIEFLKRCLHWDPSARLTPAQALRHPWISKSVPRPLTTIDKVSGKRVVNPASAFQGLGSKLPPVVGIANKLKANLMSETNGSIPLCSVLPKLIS

[6] = molecular target: panel of 255 wild-type kinases (Homo sapiens, UniProt P07332); conditions: read-out: %-inhibition at 1 µmol/L, FES
[7] = molecular target: T4, panel of 255 wild-type kinases (Homo sapiens, UniProt Q96KB5); conditions: read-out: %-inhibition at 1 µmol/L, PBK
T4 sequence (Q96KB5 1-322): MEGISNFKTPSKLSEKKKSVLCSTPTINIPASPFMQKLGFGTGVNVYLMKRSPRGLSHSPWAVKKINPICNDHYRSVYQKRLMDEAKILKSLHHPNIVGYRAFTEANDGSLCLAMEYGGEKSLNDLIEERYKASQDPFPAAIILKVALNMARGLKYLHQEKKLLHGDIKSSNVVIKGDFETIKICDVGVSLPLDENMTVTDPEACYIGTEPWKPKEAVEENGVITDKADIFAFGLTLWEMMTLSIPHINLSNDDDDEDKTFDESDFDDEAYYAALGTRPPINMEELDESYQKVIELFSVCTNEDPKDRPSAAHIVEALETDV

[8] = kinase SRPK2, 1 µmol/L single concentration
[9] = MRCKβ, 1 µmol/L single concentration
[10] = kinase PKCζ, 1 µmol/L single concentration
[11] = kinase PKCι, 1 µmol/L single concentration
[12] = kinase DYRK3, 1 µmol/L single concentration
[13] = kinase FES, 1 µmol/L single concentration
[14] = kinase PBK, 1 µmol/L single concentration

SMILES | inhibition at 1 µM [1, 8] [%] | inhibition at 1 µM [2, 9] [%] | inhibition at 1 µM [3, 10] [%] | inhibition at 1 µM [4, 11] [%] | inhibition at 1 µM [5, 12] [%] | inhibition at 1 µM [6, 13] [%] | inhibition at 1 µM [7, 14] [%] | inhibition at 1 µM [1] [%] | inhibition at 1 µM [2] [%] | inhibition at 1 µM [3] [%] | inhibition at 1 µM [4] [%] | inhibition at 1 µM [5] [%] | inhibition at 1 µM [6] [%] | inhibition at 1 µM [7] [%]
Cc1nc(NC(=O)N2CCC[C@H]2C(N)=O)sc1-c1ccnc(C(C)(C)C(F)(F)F)c1 [alpelisib] | -1.61 | -7 | 14 | 21 | 10 | -3.47 | -1.24 | – | – | – | – | – | – | –
Cn1cc(-c2cc3c(N4CCN(c5ncc([C@@](C)(N)c6ccc(F)cc6)cn5)CC4)ncnn3c2)cn1 [avapritinib] | -0.951 | 12 | -0.226 | 0.376 | 49 | 1.65 | -3 | – | – | – | – | – | – | –
Cn1cnc2c(F)c(Nc3ccc(Br)cc3F)c(C(=O)NOCCO)cc21 [binimetinib] | -1.4 | 1.58 | 10 | 15 | -3.3 | 6 | 0.203 | – | – | – | – | – | – | –
CNC(=O)c1ccc(-c2cnc3ncc(Cc4ccc5ncccc5c4)n3n2)cc1F [capmatinib] | – | – | – | – | – | – | – | -9 | -1.73 | 0.759 | -10 | 4.5 | -2 | -4
COc1cc2ncnc(Nc3ccc(F)c(Cl)c3)c2cc1NC(=O)/C=C/CN1CCCCC1 [dacomitinib] | 0.863 | 8 | 24 | 31 | 18 | 1.56 | -3.28 | – | – | – | – | – | – | –
C[C@H](Nc1ncnc2nc[nH]c12)c1cc2cccc(Cl)c2c(=O)n1-c1ccccc1 [duvelisib] | -0.863 | -7 | 16 | 18 | -2 | -0.806 | -1.84 | – | – | – | – | – | – | –
COC(=O)N[C@@H](C)CNc1nccc(-c2cn(C(C)C)nc2-c2cc(Cl)cc(NS(C)(=O)=O)c2F)n1 [encorafenib] | 2 | 1.73 | 19 | -1.18 | -1.06 | 7 | 8 | – | – | – | – | – | – | –
CN1CCN(c2ccc(C(=O)Nc3n[nH]c4ccc(Cc5cc(F)cc(F)c5)cc34)c(NC3CCOCC3)c2)CC1 [entrectinib] | 21 | -7 | 17 | 34 | -3 | 68 | -5.43 | – | – | – | – | – | – | –
CCc1nc(C(N)=O)c(Nc2ccc(N3CCC(N4CCN(C)CC4)CC3)c(OC)c2)nc1NC1CCOCC1 [gilteritinib] | 12 | 47 | 21 | 28 | 27 | 76 | -2.54 | – | – | – | – | – | – | –
CCN1CCN(c2ccc(Nc3cc(N(C)C(=O)Nc4c(Cl)c(OC)cc(OC)c4Cl)ncn3)cc2)CC1 [infigratinib] | -5.51 | -0.837 | 3.18 | -10 | -10 | 20 | -1.71 | – | – | – | – | – | – | –
O=C(Nc1cnn2ccc(N3CCC[C@@H]3c3cc(F)ccc3F)nc12)N1CC[C@H](O)C1 [larotrectinib] | -3 | -2.21 | 0.558 | -6 | -6 | -1.07 | -5.44 | – | – | – | – | – | – | –
C[C@H]1Oc2cc(cnc2N)-c2c(nn(C)c2C#N)CN(C)C(=O)c2ccc(F)cc21 [lorlatinib] | 4 | 2.78 | 17 | 19 | -3.41 | – | 1.39 | – | – | – | – | – | – | –
CCN1C(=O)N(c2c(F)c(OC)cc(OC)c2F)Cc2cnc3[nH]c(CN4CCOCC4)cc3c21 [pemigatinib] | -6 | -4.4 | -0.0817 | -4 | -2.68 | 1.55 | -5.57 | – | – | – | – | – | – | –
FC(F)(F)c1ccc(CNc2ccc(Cc3c[nH]c4ncc(Cl)cc34)cn2)cn1 [pexidartinib] | -1.19 | 2.43 | 13 | 23 | 8 | 27 | -1.68 | – | – | – | – | – | – | –
CO[C@]1(C(=O)N[C@@H](C)c2ccc(-n3cc(F)cn3)nc2)CC[C@H](c2nc(C)cc(Nc3cc(C)[nH]n3)n2)CC1 [pralsetinib] | -2.72 | 1.9 | -0.213 | -7.5 | -4.32 | 8 | -1.86 | – | – | – | – | – | – | –
CCn1c(=O)c(-c2cc(NC(=O)Nc3ccccc3)c(F)cc2Br)cc2cnc(NC)cc21 [ripretinib] | -2.82 | -1.41 | 15 | 21 | -3.77 | 23 | -4 | – | – | – | – | – | – | –
COc1ccc(CN2C3CC2CN(c2ccc(-c4cc(OCC(C)(C)O)cn5ncc(C#N)c45)cn2)C3)cn1 [selpercatinib] | -0.197 | -3.65 | -1 | -0.803 | 19 | 15 | -7 | – | – | – | – | – | – | –
Cn1cnc2c(F)c(Nc3ccc(Br)cc3Cl)c(C(=O)NOCCO)cc21 [selumetinib] | -2.61 | 0.656 | 1 | -6.5 | -4.7 | -3.3 | -3 | – | – | – | – | – | – | –

Reference: paper PMC9516332 (Frontiers in Oncology, 2022)
